Patent US12202827B2, “Aldosterone synthase inhibitor” (DAMIAN PHARMA AG, priority 2016, dated 2025)
Where two headings read alike, the source gives them in different places.

Key:
[1] = up to 225° C., TGA/DSC
Protocol: The thermogravimetric analysis and differential scanning calorimetry (TGA/DSC) studies were performed using a Mettler Toledo TGA/DSC1 STARe System with a 34-position auto sampler. The samples were made using Al crucibles (40 μL; pierced). Typically 5-10 mg of sample was loaded into a pre-weighed Al crucible and was kept at 30° C. for 5 minutes, after which it was heated at 10° C./min from 30° C. to 350° C. A nitrogen purge of 40 ml/min was maintained over the sample. The software used for data collection and evaluation was STARe Software v12.10 build 5937. No corrections were applied to the thermogram.

[2] = Solid state characterization of salts obtained as solids; format: physicochemical
[3] = Dynamic Vapour Sorption (DVS); format: physicochemical
Protocol: The Dynamic Vapour Sorption (DVS) studies were performed using a Surface Measurement Systems Ltd. DVS-1 No Video. The sample was loaded into a balance pan, typically 20-30 mg, and equilibrated at 0% RH. After the material was dried, the RH was increased with 10% per step for 1 hour per increment, ending at 95% RH. After completion of the sorption cycle, the sample was dried using the same method. The software used for data collection was DVSWin v3.01 No Video. Data analysis was performed using DVS Standard Analysis Suite v6.3.0 (Standard).

[4] = Hygroscopicity, open flasks in unconditioned ambient air for 24 hours; settings: open flask; for Hygroscopicity (assessment in words): ambient air; for Absolute weight / Weight increase: room temperature, unconditioned ambient air
Protocol: 100 mg samples of the two crystalline salts were stored in open flasks for 24 hours side by side at room temperature in unconditioned ambient air and weight measurements occurred at time 0 and after 24 hours (Table 6).

[5] = Shake-flask solubility study; settings: 20° C.
[6] = remark: listed apart in the source
Protocol: The X-ray powder diffraction studies were performed using a Bruker AXS D2 PHASER in Bragg-Brentano configuration. Using a Cu anode at 30 kV, 10 mA; sample stage standard rotating; monochromatisation by a Kβ-filter (0.5% Ni). Slits: fixed divergence slits 1.0 mm (=0.61°), primary axial Soller slit 2.5°, secondary axial Soller slit 2.5°. Detector: Linear detector LYNXEYE with receiving slit 5° detector opening. […] Measurement conditions: scan range 5 to 45° 2theta, sample rotation 5 rpm, 0.5 s/step, 0.010°/step, 3.0 mm detector slit; and all measuring conditions were logged in the instrument control file. As system suitability, corundum sample A26-826-S(NIST standard) was measured daily.

[7] = not given; remark: listed apart in the source
[8] = literature; cited from earlier work
[9] = Acetic acid, sample DF1181-5-S11
[10] = Acetonitrile, sample DF1181-5-S7
[11] = Dichloromethane, sample DF1181-5-S2
[12] = Ethyl acetate, sample DF1181-5-S5
[13] = Methyl tert-butyl ether, sample DF1181-5-S3

Structure (SMILES): N#Cc1ccc([C@H]2CCCc3cncn32)cc1.O=P(O)(O)O
- Mass loss upon heating [1]: 1.4%
- Crystallinity [2]: good
- Hygroscopicity (DVS) [2]: low
- Polymorph tendency (XRPD) [2]: Not observed
- Solid phase transition (XRPD) [2]: Not observed
- Solvation [2]: anhydrous
- Water solubility [2]: good
- Reversibility of water uptake ([3]; DVS sorption/desorption cycles): reversible
- Crystalline form upon DVS treatment (XRPD) ([3]; before and after DVS cycles): does not change
- Hygroscopicity (assessment in words) [4]: non-hygroscopic
- Absolute weight [4]: 103.9 mg
- Weight increase ([4]; listed as Phosphate Salt): 0.57%
- Solubility [5, 9]: 118 to 1180 mg/mL
- Solubility ([5]; Acetone, sample DF1181-5-S4): <0.09 mg/mL
- Solubility [5, 10]: <0.11 mg/mL
- Solubility [5, 11]: <0.10 mg/mL
- Solubility ([5]; Ethanol, sample DF1181-5-S6): 0.1 to 1.0 mg/mL
- Solubility [5, 12]: <0.09 mg/mL
- Solubility ([5]; Methanol, sample DF1181-5-S1): 112 to 1120 mg/mL
- Solubility [5, 13]: <0.11 mg/mL
- Solubility ([5]; Toluene, sample DF1181-5-S10): <0.10 mg/mL
- Solubility ([5]; Water, sample DF1181-5-S9): >1000 mg/mL
- Solubility ([5]; n-Heptane, sample DF1181-5-S8): <0.11 mg/mL
- Appearance (25° C./60% RH, 1 month): White
- Chiral Purity (25° C./60% RH, 1 month): >99.5
- Polymorph by XRPD (25° C./60% RH, 1 month): Conform
- Purity by HPLC (25° C./60% RH, 1 month): 99.77
- Water content (25° C./60% RH, 1 month): 0.2
- Appearance (25° C./60% RH, 3 months): White
- Chiral Purity (25° C./60% RH, 3 months): >99.5
- Polymorph by XRPD (25° C./60% RH, 3 months): Conform
- Purity by HPLC (25° C./60% RH, 3 months): 99.81
- Water content (25° C./60% RH, 3 months): 0.2
- Appearance (25° C./60% RH, 6 months): White
- Chiral Purity (25° C./60% RH, 6 months): >99.5
- Polymorph by XRPD (25° C./60% RH, 6 months): Conform
- Purity by HPLC (25° C./60% RH, 6 months): 99.82
- Water content (25° C./60% RH, 6 months): 0.2
- Appearance (25° C./60% RH, 9 months): White
- Chiral Purity (25° C./60% RH, 9 months): >99.5
- Polymorph by XRPD (25° C./60% RH, 9 months): Conform
- Purity by HPLC (25° C./60% RH, 9 months): 99.84
- Water content (25° C./60% RH, 9 months): 0.2
- Appearance (25° C./60% RH, 12 months): White
- Chiral Purity (25° C./60% RH, 12 months): >99.5
- Polymorph by XRPD (25° C./60% RH, 12 months): Conform
- Purity by HPLC (25° C./60% RH, 12 months): 99.81
- Water content (25° C./60% RH, 12 months): 0.3
- Appearance (25° C./60% RH, Initial): White
- Chiral Purity (25° C./60% RH, Initial): >99.5
- Polymorph by XRPD (25° C./60% RH, Initial): Conform
- Purity by HPLC (25° C./60% RH, Initial): 99.87
- Water content (25° C./60% RH, Initial): 0.3
- Appearance (30° C./65%RH, 1 month): White
- Chiral Purity (30° C./65%RH, 1 month): >99.5
- Polymorph by XRPD (30° C./65%RH, 1 month): Conform
- Purity by HPLC (30° C./65%RH, 1 month): 99.76
- Water content (30° C./65%RH, 1 month): 0.2
- Appearance (30° C./65%RH, 3 months): White
- Chiral Purity (30° C./65%RH, 3 months): >99.5
- Polymorph by XRPD (30° C./65%RH, 3 months): Conform
- Purity by HPLC (30° C./65%RH, 3 months): 99.81
- Water content (30° C./65%RH, 3 months): 0.3
- Appearance (30° C./65%RH, 6 months): White
- Chiral Purity (30° C./65%RH, 6 months): >99.5
- Polymorph by XRPD (30° C./65%RH, 6 months): Conform
- Purity by HPLC (30° C./65%RH, 6 months): 99.84
- Water content (30° C./65%RH, 6 months): 0.2
- Appearance (30° C./65%RH, 9 months): White
- Chiral Purity (30° C./65%RH, 9 months): >99.5
- Polymorph by XRPD (30° C./65%RH, 9 months): Conform
- Purity by HPLC (30° C./65%RH, 9 months): 99.86
- Water content (30° C./65%RH, 9 months): 0.2
- Appearance (30° C./65%RH, 12 months): White
- Chiral Purity (30° C./65%RH, 12 months): >99.5
- Polymorph by XRPD (30° C./65%RH, 12 months): Conform
- Purity by HPLC (30° C./65%RH, 12 months): 99.85
- Water content (30° C./65%RH, 12 months): 0.3
- Appearance (30° C./65%RH, Initial): White
- Chiral Purity (30° C./65%RH, Initial): >99.5
- Polymorph by XRPD (30° C./65%RH, Initial): Conform
- Purity by HPLC (30° C./65%RH, Initial): 99.87
- Water content (30° C./65%RH, Initial): 0.3
- Appearance (40° C./75% RH, 1 month): White
- Chiral Purity (40° C./75% RH, 1 month): >99.5
- Polymorph by XRPD (40° C./75% RH, 1 month): Conform
- Purity by HPLC (40° C./75% RH, 1 month): 99.80
- Water content (40° C./75% RH, 1 month): 0.3
- Appearance (40° C./75% RH, 3 months): White
- Chiral Purity (40° C./75% RH, 3 months): >99.5
- Polymorph by XRPD (40° C./75% RH, 3 months): Conform
- Purity by HPLC (40° C./75% RH, 3 months): 99.79
- Water content (40° C./75% RH, 3 months): 0.5
- Appearance (40° C./75% RH, 6 months): White
- Chiral Purity (40° C./75% RH, 6 months): >99.5
- Polymorph by XRPD (40° C./75% RH, 6 months): Conform
- Purity by HPLC (40° C./75% RH, 6 months): 99.88
- Water content (40° C./75% RH, 6 months): 0.3
- Appearance (40° C./75% RH, Initial): White
- Chiral Purity (40° C./75% RH, Initial): >99.5
- Polymorph by XRPD (40° C./75% RH, Initial): Conform
- Purity by HPLC (40° C./75% RH, Initial): 99.87
- Water content (40° C./75% RH, Initial): 0.3
- Long-term stability (purity, water content, chiral purity), in words (all assessed stability conditions and time periods): very stable
- XRPD after solubility determination [6, 9]: Amorphous
- XRPD after solubility determination ([6]; Acetone, sample DF1181-5-S4): Form I-Conform starting material
- XRPD after solubility determination [6, 10]: Form I-Conform starting material
- XRPD after solubility determination [6, 11]: Form I-Conform starting material
- XRPD after solubility determination ([6]; Ethanol, sample DF1181-5-S6): Form I-Conform starting material
- XRPD after solubility determination [6, 12]: Form I-Conform starting material
- XRPD after solubility determination ([6]; Methanol, sample DF1181-5-S1): Form I-Conform starting material
- XRPD after solubility determination [6, 13]: Form I-Conform starting material
- XRPD after solubility determination ([6]; Toluene, sample DF1181-5-S10): Form I-Conform starting material
- XRPD after solubility determination ([6]; Water, sample DF1181-5-S9): Form I-Conform starting material
- XRPD after solubility determination ([6]; n-Heptane, sample DF1181-5-S8): Form I-Conform starting material
- XRPD (polymorphic form) ([7]; wells 1-6, solvent Formic acid, co-solvent Water): Form I
- XRPD (polymorphic form) ([7]; wells 7-12, solvent 2-Butanone, co-solvent n-Heptane): Form I
- XRPD (polymorphic form) ([7]; wells 13-18, solvent Acetic acid, co-solvent Water): Form I
- XRPD (polymorphic form) ([7]; wells 19-24, solvent Cyclohexanone, co-solvent n-Heptane): Form I
- XRPD (polymorphic form) ([7]; wells 25-30, solvent Methanol, co-solvent Water): Form I
- XRPD (polymorphic form) ([7]; wells 31-36, solvent Ethylacetate, co-solvent n-Heptane): Form I
- XRPD (polymorphic form) ([7]; wells 37-42, solvent Ethanol, co-solvent Water): Form I
- XRPD (polymorphic form) ([7]; wells 43-48, solvent Isopropyl acetate, co-solvent n-Heptane): Form I
- XRPD (polymorphic form) ([7]; wells 49-54, solvent 2-Propanol, co-solvent Water): Form I
- XRPD (polymorphic form) ([7]; wells 55-60, solvent Cyclopentyl methyl ether, co-solvent n-Heptane): Form I
- XRPD (polymorphic form) ([7]; wells 61-66, solvent Acetone, co-solvent Water): Form I
- XRPD (polymorphic form) ([7]; wells 67-72, solvent Toluene, co-solvent n-Heptane): Form I
- XRPD (polymorphic form) ([7]; wells 79-84, solvent Cyclohexane, co-solvent n-Heptane): Form I
- XRPD (polymorphic form) ([7]; wells 85-90, solvent Tetrahydrofuran, co-solvent Water): Form I
- XRPD (polymorphic form) ([7]; wells 91-96, solvent Chlorobenzene, co-solvent n-Heptane): Form I

Structure (SMILES): Cl.N#Cc1ccc([C@H]2CCCc3cncn32)cc1
- Hygroscopicity (assessment in words) [4]: significant hygroscopicity
- Absolute weight [4]: 113.2 mg
- Weight increase [4]: 13.1%
- Weight increase ([4]; listed as Chloride Salt): 13.1%
- Hygroscopicity (in words) [8]: highly hygroscopic
